Target: T1, CYP1A2 (Homo sapiens, UniProt P05177)
T1 sequence (P05177 1-516): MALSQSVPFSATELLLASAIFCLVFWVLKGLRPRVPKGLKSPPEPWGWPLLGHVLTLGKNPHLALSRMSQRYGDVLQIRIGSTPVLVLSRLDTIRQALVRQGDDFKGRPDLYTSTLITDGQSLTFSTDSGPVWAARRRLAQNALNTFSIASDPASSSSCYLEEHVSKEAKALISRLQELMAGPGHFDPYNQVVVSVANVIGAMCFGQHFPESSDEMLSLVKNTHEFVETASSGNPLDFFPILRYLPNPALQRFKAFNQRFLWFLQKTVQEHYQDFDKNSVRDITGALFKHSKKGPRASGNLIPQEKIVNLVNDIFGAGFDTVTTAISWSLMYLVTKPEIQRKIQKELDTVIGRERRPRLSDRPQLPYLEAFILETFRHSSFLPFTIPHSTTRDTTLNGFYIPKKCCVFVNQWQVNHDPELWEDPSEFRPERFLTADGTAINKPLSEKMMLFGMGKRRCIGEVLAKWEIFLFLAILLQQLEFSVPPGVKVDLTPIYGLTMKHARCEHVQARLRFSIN
Assay: biochemical
Experimental: The effects of different concentrations of the test compounds on the metabolic reactions of phenacetin (CYP1A2), diclofenac sodium (CYP2C9), S-mephenytoin (CYP2C19), bufuralol hydrochloride (CYP2D6), and midazolam (CYP3A4/5) were assessed by liquid chromatography-tandem mass spectrometry (LC/MS/MS).
Then, 200 µL of an acetonitrile solution containing 3% formic acid and 40 nM internal standard verapamil was added, and the mixture was centrifuged at 4000 rpm for 50 min. The mixture was cooled on ice for 20 min and centrifuged at 4000 rpm for 20 min to precipitate protein. 200 µL of the supernatant was taken for LC/MS/MS analysis.
The peak area was calculated based on the chromatogram. The residual activity proportion (%) was calculated using the following formula: peak area ratio = peak area of metabolite / peak area of internal standard [formula]
The half maximal inhibitory concentrations (IC50) against CYP were calculated using Excel XLfit 5.3.1.3.

| IC50 [µM] | SMILES |
| --- | --- |
| > 30 | C[C@H]1COc2c(-c3nc(N[C@@H]4CCOC[C@H]4O)ncc3Cl)cc(F)c3nc(C(C)(C)O)n1c23 (single isomer, unassigned) [Isomer 1 with a retention time of 2.078 min] |
| > 30 | C[C@@H]1COc2c(-c3nc(N[C@@H]4CCOC[C@H]4O)ncc3Cl)cc(F)c3nc(C(C)(C)O)n1c23 (single isomer, unassigned) [Isomer 2 with a retention time of 1.887 min] |
